The values that follow come from patent publication US5159077A, “Penam antibacterial compounds” (Hoffmann-La Roche Inc., priority 1989, dated 1992).

Experiment [1] has as its system Serratia marcescens SM. In words: In vitro MIC, Broth Dilution Method. It counts as cell-based. To be noted: read-out: In Vitro MIC. As to the method:
(§1) The diluted agents prepared in Mueller-Hinton broth were dispensed from a Dynatech MIC 2000 machine, in 100 microliter (μL) volumes into 96 well trays and used immediately or frozen at -10° to -70° C. until needed. Using a Dynatech inoculator and inoculum trays, 1.5 μL of a 10^-2 dilution of an overnight culture was added to each well of the tray. The tops of the trays were then sealed with tape, and the trays were incubated overnight at 37° C. and then examined with a viewer. The lowest concentration at which no growth was observed was considered to be the minimum inhibitory concentration (MIC).
A general note: Broth dilution looks for growth in wells or tubes with falling amounts of substance.

Experiment [2] deals with Streptococcus faecalis ATCC 29212. Briefly: In vitro MIC, Broth Dilution Method. It counts as cell-based. Particulars: Enterococcus faecalis. As to the method: as §1
In experiment [3] the test system is Klebsiella pneumoniae A. In words: In vitro MIC, Broth Dilution Method. It counts as cell-based. Particulars: read-out: In Vitro MIC. How it is done: as §1
Experiment [4] relates to Enterobacter cloacae P99. Briefly: In vitro MIC, Broth Dilution Method. It counts as cell-based. To be noted: P99, read-out: In Vitro MIC. As to the method:
as §1

In experiment [5] the test system is Proteus vulgaris ATCC 6380. Briefly: In vitro MIC, Broth Dilution Method. It counts as cell-based. How it is done: as §1
The test system of experiment [6] is Escherichia coli 4. In words: In vitro MIC, Broth Dilution Method. It counts as cell-based. As to the method:
as §1

For experiment [7], the system named is Streptococcus pneumoniae 6301. Briefly: In vitro MIC, Broth Dilution Method. It counts as cell-based. How it is done:
as §1

Experiment [8] relates to Enterobacter cloacae 5699. In words: In vitro MIC, Broth Dilution Method. It counts as cell-based. How it is done: as §1
Experiment [9] has as its system Escherichia coli TEM-1. Briefly: In vitro MIC, Broth Dilution Method. Particulars: TEM1, read-out: In Vitro MIC. It counts as cell-based. As to the method:
as §1

Experiment [10] concerns Staphylococcus aureus ATCC 29213. Briefly: In vitro MIC, Broth Dilution Method. It counts as cell-based. How it is done:
as §1

The test system of experiment [11] is Pseudomonas aeruginosa ATCC 27853. Briefly: In vitro MIC, Broth Dilution Method. It counts as cell-based. How it is done:
as §1

Experiment [12] relates to Proteus mirabilis 2. Briefly: In vitro MIC, Broth Dilution Method. It counts as cell-based. As to the method: as §1
Experiment [13] relates to Serratia marcescens SM. In words: In vitro MIC, Agar Well Diffusion Method. It counts as cell-based. Particulars: Serratia marcescens, read-out: In Vitro MIC. As to the method: (§2) In vitro antimicrobial activity was determined in BBL seed agar. Serial dilutions of the test compound were pipetted into agar wells (80 μL per well). […] For reference, see A. H. Litton, Antibiotics: Assessment of Antimicrobial Activity and Resistance, Academic Press, New York, pages 19-30 (1983).
A general note: A growth-free zone around the sample is the usual read-out of agar diffusion tests.

Experiment [14] has as its system Streptococcus faecium ATCC 8043. In words: In vitro MIC, Agar Well Diffusion Method. To be noted: Enterococcus faecium, ATCC8043, read-out: In Vitro MIC. It counts as cell-based. As to the method:
as §2

For experiment [15], the system named is Escherichia coli 1269B. In words: In vitro MIC, Agar Well Diffusion Method. It counts as cell-based. To be noted: Escherichia coli, 1269B, read-out: In Vitro MIC. How it is done: as §2
The test system of experiment [16] is Pseudomonas aeruginosa B. Briefly: In vitro MIC, Agar Well Diffusion Method. It counts as cell-based. Particulars: Pseudomonas aeruginosa, read-out: In Vitro MIC. How it is done:
as §2

The subject of experiment [17] is Proteus vulgaris 101N. Briefly: In vitro MIC, Agar Well Diffusion Method. Particulars: Proteus vulgaris, 101N, read-out: In Vitro MIC. It counts as cell-based. As to the method:
as §2

Experiment [18] relates to Klebsiella pneumoniae 369. Briefly: In vitro MIC, Agar Well Diffusion Method. It counts as cell-based. To be noted: Klebsiella pneumoniae, 369, read-out: In Vitro MIC. How it is done: as §2
Experiment [19] deals with Micrococcus luteus PCl. In words: In vitro MIC, Agar Well Diffusion Method. It counts as cell-based. Particulars: Micrococcus luteus, read-out: In Vitro MIC. As to the method: as §2
Experiment [20] deals with Pseudomonas aeruginosa 56. In words: In vitro MIC, Agar Well Diffusion Method. It counts as cell-based. To be noted: Pseudomonas aeruginosa, 56, read-out: In Vitro MIC. How it is done: as §2
For experiment [21], the system named is Enterobacter cloacae 2952B. In words: In vitro MIC, Agar Well Diffusion Method. It counts as cell-based. To be noted: Enterobacter cloacae, 2952B, read-out: In Vitro MIC. As to the method: as §2
Experiment [22] deals with Streptococcus 82. Briefly: In vitro MIC, Agar Well Diffusion Method. It counts as cell-based, Streptococcus aureus. To be noted: Streptococcus, 82, read-out: In Vitro MIC. As to the method: as §2
Experiment [23] deals with Proteus mirabilis 90. Briefly: In vitro MIC, Broth Dilution Method. It counts as cell-based. As to the method: as §1
The test system of experiment [24] is Pseudomonas aeruginosa Stone 130. In words: In vitro MIC, Broth Dilution Method. It counts as cell-based. To be noted: STONE130; Broth Dilution Method; Pseudomonas aeruginosa Stone 130; read-out: In Vitro MIC. As to the method:
as §1

Experiment [25] has as its system Staphylococcus aureus Smith. In words: In vitro MIC, Broth Dilution Method. It counts as cell-based. To be noted: read-out: In Vitro MIC. As to the method: as §1
The test system of experiment [26] is Citrobacter freundii BS-16. In words: In vitro MIC, Broth Dilution Method. It counts as cell-based. As to the method:
as §1

Where [27] appears, read: Proteus vulgaris, ATCC6380, read-out: In Vitro MIC.
Where [28] appears, read: Escherichia coli, 4, read-out: In Vitro MIC.
Setting [29] is: Enterobacter cloacae, 5699, read-out: In Vitro MIC.
[30] abbreviates: Proteus mirabilis, 2, read-out: In Vitro MIC.
Setting [31] is: ATCC29212, Broth Dilution Method, Streptococcus faecalis ATCC 29212, read-out: In Vitro MIC.
The mark [32] stands for this setting: Broth Dilution Method, Klebsiella pneumoniae A.
The mark [33] stands for this setting: Broth Dilution Method, Proteus mirabilis 90, read-out: In Vitro MIC.
The mark [34] stands for this setting: Broth Dilution Method, Escherichia coli 4, read-out: In Vitro MIC.
[35] abbreviates: Broth Dilution Method, Streptococcus pneumoniae 6301, read-out: In Vitro MIC.
[36] abbreviates: Broth Dilution Method, Enterobacter cloacae 5699, read-out: In Vitro MIC.
The mark [37] stands for this setting: ATCC29213, Broth Dilution Method, Staphylococcus aureus ATCC 29213, read-out: In Vitro MIC.
Setting [38] is: ATCC27853, Broth Dilution Method, Pseudomonas aeruginosa ATCC 27853, read-out: In Vitro MIC.
Where [39] appears, read: Broth Dilution Method, Staphylococcus aureus Smith.
[40] abbreviates: ATCC6380, Broth Dilution Method, Proteus vulgaris ATCC 6380, read-out: In Vitro MIC.
The mark [41] stands for this setting: Citrobacter freundii, BS16, read-out: In Vitro MIC.

Where a name gives a salt, the structure may show the parent alone. Read-outs that look alike come from different tables or passages of the source.

By MIC is commonly meant the lowest concentration that inhibits growth of the organism.

With `CCn1cc(C(=O)[O-])c(=O)c2cc(F)c(N3CCN(C=N[C@@H]4C(=O)N(S(=O)(=O)[O-])[C@@H]4COC(N)=O)CC3)cc21.[Na+].[Na+]` [Compound F, (2S-cis)-7-[4-[[[2-[[(Aminocarbonyl)oxy]methyl]-4-oxo-1-sulfo-3-azetidinyl]imino]methyl]-1-piperazinyl]-1-ethyl-6-fluoro-1,4-dihydro-4-oxo-3-quinolinecarboxylic acid disodium salt], the MIC in [1] (Serratia marcescens) was 0.063 mg/L; in experiment [2] (ATCC29212, read-out: In Vitro MIC), 4 mg/L; in experiment [3] (Klebsiella pneumoniae), 0.125 mg/L; in experiment [4], 0.125 mg/L; in experiment [5] (setting [27]) it was 0.031 mg/L; in [6] (setting [28]), 0.125 mg/L. For the same molecule, the MIC in [7] (Streptococcus pneumoniae, 6301, read-out: In Vitro MIC) was 8 mg/L; in [8] (setting [29]), 0.063 mg/L; in experiment [9], 0.063 mg/L; in experiment [10] (Staphylococcus aureus, ATCC29213, read-out: In Vitro MIC), 2 mg/L; in experiment [11] (Pseudomonas aeruginosa, ATCC27853, read-out: In Vitro MIC), 2 mg/L; in experiment [12] (setting [30]) it was 0.063 mg/L. Moreover, the MIC in experiment [13] is 62.5 mg/L; in experiment [14] it was 500 mg/L; in experiment [15], 7.8 mg/L; in experiment [16] it was 7.8 mg/L; in experiment [17] it was 1.95 mg/L; in experiment [18], 3.9 mg/L. The MIC is 500 mg/L in [19], 7.8 mg/L in experiment [20], 31.3 mg/L in [21] and 31.3 mg/L in experiment [22].
`CCn1cc(C(=O)O)c(=O)c2cc(F)c(N3CCN(C=N[C@@H]4C(=O)N5C(C(=O)O)=C(COC(C)=O)CS[C@H]45)CC3)cc21` [Compound I, [6R-[6α,7β(Z)]]-7-[4-[[[3-[Acetyloxy)methyl]-2-carboxylic-8-oxo-5-thia-1-azabicyclo[4..0]oct-2-en-7-yl]imino]methyl]-1-piperazinyl]-1-ethyl-6-fluoro-1,4-dihydro-4-oxo-3-quinolinecarboxylic acid monosodium salt]: the MIC worked out at 0.125 mg/L in experiment [1] (Broth Dilution Method, Serratia marcescens SM); 4 mg/L in experiment [2] (setting [31]); 0.125 mg/L in [3] (setting [32]); 0.063 mg/L in [4]; 0.5 mg/L in experiment [23] (setting [33]); 0.063 mg/L in experiment [5] (setting [27]). The MIC was 0.125 mg/L in [6] (setting [34]); 0.5 mg/L in [7] (setting [35]); 1 mg/L in [24]; 0.125 mg/L in experiment [8] (setting [36]); 0.063 mg/L in [9]; 2 mg/L in experiment [10] (setting [37]). Further, the MIC came to 8 mg/L in experiment [11] (setting [38]); 0.25 mg/L in experiment [25] (setting [39]); 0.063 mg/L in experiment [12] (setting [30]); 0.25 mg/L in [26] (BS16, Broth Dilution Method, Citrobacter freundii BS-16, read-out: In Vitro MIC).
Regarding `CCn1cc(C(=O)O)c(=O)c2cc(F)c(N3CCN(C=N[C@@H]4C(=O)N5C(C(=O)O)=C(CSc6nc(=O)c(=O)[nH]n6C)CS[C@H]45)CC3)cc21` [Compound J, [6R-[6α,7β(Z)]]-7-[4-[[[2-Carboxy-3-[[(1,2,5,6-tetrahydro-2-methyl-5,6-dioxo-1,2,4-triazin-3-yl)thio]methyl]-8-oxo-5-thia-1-azabicyclo[4.2.0]-oct-2-en-7-yl]-imino]methyl]-1-piperazinyl]-ethyl-6-fluoro-1,4-dihydro-4-oxo-3-quinolinecarboxylic acid disodium salt], the MIC in experiment [1] (Serratia marcescens) came out at 0.5 mg/L; in experiment [2] (setting [31]) it was 0.25 mg/L; in experiment [3] (setting [32]) it was 0.5 mg/L; in experiment [4] it was 0.5 mg/L; in experiment [23] (Proteus mirabilis, 90, read-out: In Vitro MIC), 1 mg/L; in experiment [5] (setting [40]) it was 0.125 mg/L. Further, the MIC is 0.25 mg/L in experiment [6] (setting [28]); 2 mg/L in experiment [7] (setting [35]); 8 mg/L in experiment [24]; 0.25 mg/L in [8] (setting [36]); 0.25 mg/L in experiment [9]; 2 mg/L in [10] (setting [37]). Further, the MIC was 16 mg/L in experiment [11] (setting [38]); 1 mg/L in [25] (Staphylococcus aureus); 0.5 mg/L in experiment [12] (Broth Dilution Method, Proteus mirabilis 2, read-out: In Vitro MIC); 0.5 mg/L in [26] (setting [41]).
Turning to `CCn1cc(C(=O)O)c(=O)c2cc(F)c(N3CCCN(C=N[C@@H]4C(=O)N5[C@@H]4SC(C)(C)[C@@H]5C(=O)O)CC3)nc21` [Compound K, [2S-(2α,5α,6β)]-7-[4-[[2-Carboxy-3,3-dimethyl-7-oxo-4-thia-1-azabicyclo[3.2.0]hept-6-yl)-imino]methyl]hexahydro-1H, 1,4-diazepin-1-yl]-1-ethyl-6-fluoro-1,4-dihydro-4-oxo-1,8-naphthyridine--carboxylic acid disodium salt], the MIC in experiment [1] (Serratia marcescens) was 4 mg/L; in [2] (setting [31]) it was 128 mg/L; in [3] (setting [32]), 2 mg/L; in experiment [4], 1 mg/L; in experiment [23] (setting [33]) it was 8 mg/L; in [5] (setting [40]) it was 2 mg/L. In addition, the MIC in experiment [6] (setting [34]) is 2 mg/L; in experiment [7] (setting [35]) it was 2 mg/L; in experiment [24], 8 mg/L; in experiment [8] (setting [29]) it was 4 mg/L; in experiment [9] it was 1 mg/L; in experiment [10] (setting [37]), 16 mg/L. In addition, the MIC in experiment [25] (setting [39]) was determined as 2 mg/L; in experiment [12] (setting [30]), 4 mg/L; in [26] (setting [41]) it was 4 mg/L.
